In patent US20240051985A1, “METTL3 MODULATORS” (ACCENT THERAPEUTICS, INC., priority 2020, published 2024):

Biological target: METTL3/METTL14 (Homo sapiens, UniProt Q86U44)
Assay: METTL3-14 standard enzyme assay (3H-SAM flashplate)
Settings: METTL3 biochemical assay
Method: METTL3-14 Standard Enzyme Assay
Assays were performed in a 25 μl-volume in 384-well V-bottom polypropylene microplates (Greiner Bio-One, cat. No. 781280) at ambient temperature. Optimized 1× assay buffer was 20 mM HEPES pH 7.5, 50 mM KCl, 250 μM MgCl2, 1 mM DTT, 0.01% Tween, 0.01% BSG, 0.004 U/μl RNAseOUT (cat. No. 10777019, ThermoFisher Scientific, Waltham, MA). For compound screening METTL3/METTL14 (final concentration, f.c.=2.5 nM) was added using a Multidrop Combi (ThermoFisher Scientific, Waltham, MA) and preincubated for 5 min. Reactions were started by adding 3′ biotinylated RNA (UCUGGACUAAA-biotin) (f.c.=100 nM) and 3H-SAM (f.c.=100 nM) substrates. Reactions proceeded for 30 minutes and were quenched with excess non-radioactive SAM (f.c.=15 μM). The reactions were then transferred to streptavidin-coated flashplates and incubated for 2 hours at 25° C. Following two washing cycles with 0.1% Tween-20, the plates were sealed and read on a TopCount (PerkinElmer, Waltham, MA) plate-based scintillation counter. For determination of kinetic parameters, reaction times were optimized so that measurements were taken during the initial velocity phase of the reaction.

METTL3/METTL14, sequence (Q86U44 whole entry, species assumed): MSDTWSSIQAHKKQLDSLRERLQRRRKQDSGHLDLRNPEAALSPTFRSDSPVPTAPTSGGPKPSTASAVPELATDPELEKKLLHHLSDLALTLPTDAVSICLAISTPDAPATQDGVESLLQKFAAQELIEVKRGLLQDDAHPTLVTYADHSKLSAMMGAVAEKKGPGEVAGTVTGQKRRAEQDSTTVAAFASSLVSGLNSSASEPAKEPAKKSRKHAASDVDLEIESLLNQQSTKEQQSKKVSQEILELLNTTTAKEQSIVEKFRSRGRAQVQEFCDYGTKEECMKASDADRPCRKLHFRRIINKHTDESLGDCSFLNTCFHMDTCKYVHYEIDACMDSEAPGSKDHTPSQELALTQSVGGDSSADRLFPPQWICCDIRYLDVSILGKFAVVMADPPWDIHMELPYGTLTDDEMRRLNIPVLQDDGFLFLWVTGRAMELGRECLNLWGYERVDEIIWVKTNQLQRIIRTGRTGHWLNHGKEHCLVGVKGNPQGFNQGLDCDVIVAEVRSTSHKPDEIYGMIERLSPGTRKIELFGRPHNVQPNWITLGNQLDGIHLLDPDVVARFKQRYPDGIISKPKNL
METTL3/METTL14, sequence (Q9HCE5 whole entry partner, species assumed): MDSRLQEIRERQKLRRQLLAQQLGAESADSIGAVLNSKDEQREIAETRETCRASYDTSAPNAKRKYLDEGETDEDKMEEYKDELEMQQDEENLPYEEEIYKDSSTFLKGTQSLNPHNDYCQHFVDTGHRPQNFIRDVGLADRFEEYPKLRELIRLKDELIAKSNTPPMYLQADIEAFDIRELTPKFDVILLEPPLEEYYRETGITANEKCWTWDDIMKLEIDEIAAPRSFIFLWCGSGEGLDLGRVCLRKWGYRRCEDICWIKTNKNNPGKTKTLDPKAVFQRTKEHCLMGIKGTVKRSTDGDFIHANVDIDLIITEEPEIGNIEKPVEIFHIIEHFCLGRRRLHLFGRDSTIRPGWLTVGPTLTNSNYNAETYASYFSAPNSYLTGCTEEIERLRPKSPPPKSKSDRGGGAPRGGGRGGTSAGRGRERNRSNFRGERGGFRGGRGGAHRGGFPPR

IC50 (Table 4) [µM] | IC50 (Table 3) [µM] | SMILES
≥ 1 |  | Cn1ccc(-c2cn([C@@H]3O[C@H](C(=O)Nc4ccc(Br)c(Cl)c4)[C@@H](O)[C@H]3O)c3ncnc(N)c23)n1 [Compound I-63]
0.1 to 1 |  | Cn1ccc(-c2cn([C@@H]3O[C@H](C(=O)Nc4ccc(C(=O)N5CCCCC5)cc4)[C@@H](O)[C@H]3O)c3ncnc(N)c23)n1 [Compound I-135]
0.1 to 1 |  | Cn1ccc(-c2cn([C@@H]3O[C@H](C(=O)Nc4ccc(OCCN5CCOCC5)cc4)[C@@H](O)[C@H]3O)c3ncnc(N)c23)n1 [Compound I-139]
0.1 to 1 |  | Cn1ccc(-c2cn([C@@H]3O[C@H](C(=O)N4CCc5ccccc54)[C@@H](O)[C@H]3O)c3ncnc(N)c23)n1 [Compound I-99]
0.1 to 1 |  | Cn1cc(NC(=O)[C@H]2O[C@@H](n3cc(-c4ccn(C)n4)c4c(N)ncnc43)[C@H](O)[C@@H]2O)cn1 [Compound I-104]
≥ 1 |  | Cn1ccc(-c2cn([C@@H]3O[C@H](C(=O)NCc4ccc(OC(F)(F)F)cc4)[C@@H](O)[C@H]3O)c3ncnc(N)c23)n1 [Compound I-84]
0.1 to 1 |  | Cn1ccc(-c2cn([C@@H]3O[C@H](C(=O)Nc4ccc(Oc5ccccc5)cc4)[C@@H](O)[C@H]3O)c3ncnc(N)c23)n1 [Compound I-100]
0.1 to 1 |  | Cn1ccc(-c2cn([C@@H]3O[C@H](C(=O)Nc4ccc5ccccc5c4)[C@@H](O)[C@H]3O)c3ncnc(N)c23)n1 [Compound I-114]
≥ 1 |  | Cn1ccc(-c2cn([C@@H]3O[C@H](C(=O)Nc4cccc(N5CCOCC5)c4)[C@@H](O)[C@H]3O)c3ncnc(N)c23)n1 [Compound I-74]
0.1 to 1 |  | Cn1ccc(-c2cn([C@@H]3O[C@H](C(=O)Nc4ccc5c(c4)NC(=O)CC5)[C@@H](O)[C@H]3O)c3ncnc(N)c23)n1 [Compound I-123]
0.1 to 1 |  | Cc1cc(C#N)ccc1NC(=O)[C@H]1O[C@@H](n2cc(-c3ccn(C)n3)c3c(N)ncnc32)[C@H](O)[C@@H]1O [Compound I-113]
0.1 to 1 |  | Cc1cc(F)ccc1NC(=O)[C@H]1O[C@@H](n2cc(-c3ccn(C)n3)c3c(N)ncnc32)[C@H](O)[C@@H]1O [Compound I-117]
0.1 to 1 |  | CC(CCc1ccccc1)NC(=O)[C@H]1O[C@@H](n2cc(-c3ccn(C)n3)c3c(N)ncnc32)[C@H](O)[C@@H]1O (some centres unmarked) [Compound I-137]
0.1 to 1 |  | Cn1ccc(-c2cn([C@@H]3O[C@H](C(=O)NCCc4ccc(Cl)cc4)[C@@H](O)[C@H]3O)c3ncnc(N)c23)n1 [Compound I-111]
0.1 to 1 |  | Cn1ccc(-c2cn([C@@H]3O[C@H](C(=O)NCc4ccccc4-n4cccn4)[C@@H](O)[C@H]3O)c3ncnc(N)c23)n1 [Compound I-121]
 | ≥ 1 | Nc1ncnc2c1c(-n1cccn1)cn2[C@H]1C[C@H](O)[C@@H](C(=O)Nc2cc(NC3CCC3)ccn2)O1 [Compound I-17, (2S,3S,5R)-5-[4-amino-5-(1H-pyrazol-1-yl)-7H-pyrrolo[2,3-d]pyrimidin-7-yl]-N-[4-(cyclobutylamino)pyridin-2-yl]-3-hydroxyoxolane-2-carboxamide]
0.1 to 1 |  | Cn1ccc(-c2cn([C@@H]3O[C@H](C(=O)NCCc4ccc(-c5ccccc5)cc4)[C@@H](O)[C@H]3O)c3ncnc(N)c23)n1 [Compound I-116]
0.1 to 1 |  | Cn1ccc(-c2cn([C@@H]3O[C@H](C(=O)NCCCn4ccnc4)[C@@H](O)[C@H]3O)c3ncnc(N)c23)n1 [Compound I-102]
≥ 1 |  | Cc1nsc(NC(=O)[C@H]2O[C@@H](n3cc(-c4ccn(C)n4)c4c(N)ncnc43)[C@H](O)[C@@H]2O)n1 [Compound I-83]
0.1 to 1 |  | Cn1ccc(-c2cn([C@@H]3O[C@H](C(=O)Nc4ccc5c(c4)OCCCO5)[C@@H](O)[C@H]3O)c3ncnc(N)c23)n1 [Compound I-124]
0.1 to 1 |  | Cn1ccc(-c2cn([C@@H]3O[C@H](C(=O)Nc4ccc(OC(F)F)cc4)[C@@H](O)[C@H]3O)c3ncnc(N)c23)n1 [Compound I-132]
≥ 1 |  | Cn1ccc(-c2cn([C@@H]3O[C@H](C(=O)Nc4ccc5ccccc5n4)[C@@H](O)[C@H]3O)c3ncnc(N)c23)n1 [Compound I-66]
0.1 to 1 |  | Cn1ccc(-c2cn([C@@H]3O[C@H](C(=O)NCCc4ccc(C(F)(F)F)cc4)[C@@H](O)[C@H]3O)c3ncnc(N)c23)n1 [Compound I-108]
 | 0.01 to 0.1 | Nc1ncnc2c1c(-n1cccn1)cn2[C@@H]1C[C@H](C(=O)Nc2ccc3ccc(N4CCC4)nc3c2)[C@@H](O)C1 [Compound I-14]
0.1 to 1 |  | Cn1ccc(-c2cn([C@@H]3O[C@H](C(=O)NCCC4CCOCC4)[C@@H](O)[C@H]3O)c3ncnc(N)c23)n1 [Compound I-96]
≥ 1 |  | Cn1ccc(-c2cn([C@@H]3O[C@H](C(=O)Nc4cccc(C(F)(F)F)c4)[C@@H](O)[C@H]3O)c3ncnc(N)c23)n1 [Compound I-76]
0.1 to 1 |  | Cn1ccc(-c2cn([C@@H]3O[C@H](C(=O)NC4CCN(S(C)(=O)=O)CC4)[C@@H](O)[C@H]3O)c3ncnc(N)c23)n1 [Compound I-95]

IC50 (Table 4) [µM] | IC50 (Table 3) [µM] | SMILES
0.1 to 1 |  | Cn1ccc(-c2cn([C@@H]3O[C@H](C(=O)NCCc4ccncc4)[C@@H](O)[C@H]3O)c3ncnc(N)c23)n1 [Compound I-112]
≥ 1 |  | Cc1cc(NC(=O)[C@H]2O[C@@H](n3cc(-c4ccn(C)n4)c4c(N)ncnc43)[C@H](O)[C@@H]2O)n(C)n1 [Compound I-86]
0.1 to 1 |  | Cn1ccc(-c2cn([C@@H]3O[C@H](C(=O)Nc4ccncc4Cl)[C@@H](O)[C@H]3O)c3ncnc(N)c23)n1 [Compound I-122]
0.01 to 0.1 |  | COc1ccc(NC(=O)[C@H]2O[C@@H](n3cc(-c4ccn(C)n4)c4c(N)ncnc43)[C@H](O)[C@@H]2O)cc1Cl [Compound I-140]
0.1 to 1 |  | CNC(=O)c1ccc(NC(=O)[C@H]2O[C@@H](n3cc(-c4ccn(C)n4)c4c(N)ncnc43)[C@H](O)[C@@H]2O)cc1 [Compound I-136]
0.1 to 1 |  | CCCCc1ccc(NC(=O)[C@H]2O[C@@H](n3cc(-c4ccn(C)n4)c4c(N)ncnc43)[C@H](O)[C@@H]2O)cc1 [Compound I-110]
≥ 1 |  | Cn1ccc(-c2cn([C@@H]3O[C@H](C(=O)Nc4cnccn4)[C@@H](O)[C@H]3O)c3ncnc(N)c23)n1 [Compound I-91]
0.1 to 1 |  | Cn1ccc(-c2cn([C@@H]3O[C@H](C(=O)Nc4cccc5nsnc45)[C@@H](O)[C@H]3O)c3ncnc(N)c23)n1 [Compound I-118]
≥ 1 |  | Cc1ccc(C(N)=O)cc1NC(=O)[C@H]1O[C@@H](n2cc(-c3ccn(C)n3)c3c(N)ncnc32)[C@H](O)[C@@H]1O [Compound I-92]
≥ 1 |  | Cc1noc(NC(=O)[C@H]2O[C@@H](n3cc(-c4ccn(C)n4)c4c(N)ncnc43)[C@H](O)[C@@H]2O)c1C [Compound I-75]
0.1 to 1 |  | Cn1ccc(-c2cn([C@@H]3O[C@H](C(=O)Nc4ccc(S(=O)(=O)N5CCOCC5)cc4)[C@@H](O)[C@H]3O)c3ncnc(N)c23)n1 [Compound I-107]
≥ 1 |  | Cn1ccc(-c2cn([C@@H]3O[C@H](C(=O)Nc4ccc(-c5ccccc5)cn4)[C@@H](O)[C@H]3O)c3ncnc(N)c23)n1 [Compound I-79]
≥ 1 |  | Cn1ccc(-c2cn([C@@H]3O[C@H](C(=O)NCCN4CCNC4=O)[C@@H](O)[C@H]3O)c3ncnc(N)c23)n1 [Compound I-64]
≥ 1 |  | Cc1cccnc1NC(=O)[C@H]1O[C@@H](n2cc(-c3ccn(C)n3)c3c(N)ncnc32)[C@H](O)[C@@H]1O [Compound I-93]
0.1 to 1 |  | Cn1ccc(-c2cn([C@@H]3O[C@H](C(=O)NCCc4ccccc4Cl)[C@@H](O)[C@H]3O)c3ncnc(N)c23)n1 [Compound I-133]
0.1 to 1 |  | Cn1ccc(-c2cn([C@@H]3O[C@H](C(=O)NC(Cc4ccccc4)c4ccccc4)[C@@H](O)[C@H]3O)c3ncnc(N)c23)n1 (some centres unmarked) [Compound I-115]
≥ 1 |  | COCC(C)NC(=O)[C@H]1O[C@@H](n2cc(-c3ccn(C)n3)c3c(N)ncnc32)[C@H](O)[C@@H]1O (some centres unmarked) [Compound I-80]
≥ 1 |  | Cc1cc(CNC(=O)[C@H]2O[C@@H](n3cc(-c4ccn(C)n4)c4c(N)ncnc43)[C@H](O)[C@@H]2O)ccc1F [Compound I-77]
0.1 to 1 |  | Cn1ccc(-c2cn([C@@H]3O[C@H](C(=O)Nc4ccc(-c5ccccc5)cc4)[C@@H](O)[C@H]3O)c3ncnc(N)c23)n1 [Compound I-98]
≥ 1 |  | Cn1ccc(-c2cn([C@@H]3O[C@H](C(=O)Nc4nccs4)[C@@H](O)[C@H]3O)c3ncnc(N)c23)n1 [Compound I-82]
≥ 1 |  | Cn1ccc(-c2cn([C@@H]3O[C@H](C(=O)Nc4cccc5cnccc45)[C@@H](O)[C@H]3O)c3ncnc(N)c23)n1 [Compound I-69]
0.1 to 1 |  | COc1ccccc1CNC(=O)[C@H]1O[C@@H](n2cc(-c3ccn(C)n3)c3c(N)ncnc32)[C@H](O)[C@@H]1O [Compound I-97]
≥ 1 |  | CCc1cccc(NC(=O)[C@H]2O[C@@H](n3cc(-c4ccn(C)n4)c4c(N)ncnc43)[C@H](O)[C@@H]2O)n1 [Compound I-85]
0.1 to 1 |  | Cn1ccc(-c2cn([C@@H]3O[C@H](C(=O)NCCC4CCCCC4)[C@@H](O)[C@H]3O)c3ncnc(N)c23)n1 [Compound I-120]
≥ 1 |  | Cn1ccc(-c2cn([C@@H]3O[C@H](C(=O)Nc4nccc5ccccc45)[C@@H](O)[C@H]3O)c3ncnc(N)c23)n1 [Compound I-78]
0.1 to 1 |  | COc1ccccc1[C@H](C)NC(=O)[C@H]1O[C@@H](n2cc(-c3ccn(C)n3)c3c(N)ncnc32)[C@H](O)[C@@H]1O [Compound I-119]
